Assay results reported in ChEMBL document CHEMBL1201862, “PubChem BioAssay data set” (2004).
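Interpolation was linear, between the two tested concentrations surrounding the appropriate level; five concentrations were tested over 48 hours in 96-well plates. Abbreviation: GI50, concentration required for 50% inhibition of growth.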 Calls of active or inactive are those of the source. Cut-off read from the data, not from the text of the source: active = GI50 up to about 1.1 µM and inactive = higher.

Tests used:
Test in all cases: inhibition of tumour cell growth, NCI panel, 48 h
[1] = tested on: U-251
[2] = tested on: HL-60
[3] = tested on: NCI-H23
[4] = tested on: NCI-H226
[5] = tested on: UO-31
[6] = tested on: BT-549
[7] = tested on: SF-539
[8] = tested on: SF-295
[9] = tested on: HCT-116
[10] = tested on: SF-268
[11] = tested on: PC-3
[12] = tested on: UACC-62
[13] = tested on: HT-29
[14] = tested on: M14
[15] = tested on: HCC 2998
[16] = tested on: A549
[17] = tested on: CCRF-CEM
[18] = tested on: RXF 393
[19] = tested on: SNB-75
[20] = tested on: HOP-62
[21] = tested on: CAKI-1
[22] = tested on: DU-145
[23] = tested on: SNB-19
[24] = tested on: MDA-MB-435
[25] = tested on: OVCAR-4
[26] = tested on: SK-MEL-28
[27] = tested on: A498
[28] = tested on: K562
[29] = tested on: SW-620
[30] = tested on: KM12
[31] = tested on: NCI/ADR-RES
[32] = tested on: OVCAR-8
[33] = tested on: IGROV-1
[34] = tested on: SN12C
[35] = tested on: ACHN
[36] = tested on: 786-0
[37] = tested on: Hs-578T
[38] = tested on: MDA-N
[39] = tested on: EKVX
[40] = tested on: MOLT-4
[41] = tested on: T47D
[42] = tested on: NCI-H460
[43] = tested on: HOP-92
[44] = tested on: MDA-MB-231
[45] = tested on: SK-MEL-5
[46] = tested on: SR
[47] = tested on: SK-MEL-2
[48] = tested on: OVCAR-5
[49] = tested on: NCI-H522
[50] = tested on: LOX IMVI
[51] = tested on: UACC-257
[52] = tested on: TK-10
[53] = tested on: COLO 205
[54] = tested on: HCT-15
[55] = tested on: MCF7
[56] = tested on: RPMI-8226
[57] = tested on: SK-OV-3
[58] = tested on: OVCAR-3
[59] = tested on: Malme-3M

## O=c1[nH]nc(Nc2ccccc2)c2nnn(Cc3ccccc3)c12
[1]
  GI50: 30.7 µM (inactive)
[2]
  GI50: > 100 µM (inactive)
[3]
  GI50: > 100 µM (inactive)
[4]
  GI50: 20.3 µM (inactive)
[5]
  GI50: > 100 µM (inactive)
[6]
  GI50: > 100 µM (inactive)
[7]
  GI50: 54.2 µM (inactive)
[8]
  GI50: 86.9 µM (inactive)
[9]
  GI50: 83.9 µM (inactive)
[10]
  GI50: > 100 µM (inactive)
[11]
  GI50: > 100 µM (inactive)
[12]
  GI50: > 100 µM (inactive)
[13]
  GI50: > 100 µM (inactive)
[14]
  GI50: > 100 µM (inactive)
[15]
  GI50: > 100 µM (inactive)
[16]
  GI50: > 100 µM (inactive)
[17]
  GI50: > 100 µM (inactive)
[18]
  GI50: > 100 µM (inactive)
[19]
  GI50: 18.7 µM (inactive)
[20]
  GI50: 4.52 µM (inactive)
[21]
  GI50: > 100 µM (inactive)
[22]
  GI50: > 100 µM (inactive)
[23]
  GI50: 74 µM (inactive)
[24]
  GI50: > 100 µM (inactive)
[25]
  GI50: 8.32 µM (inactive)
[26]
  GI50: > 100 µM (inactive)
[27]
  GI50: > 100 µM (inactive)
[28]
  GI50: > 100 µM (inactive)
[29]
  GI50: > 100 µM (inactive)
[30]
  GI50: > 100 µM (inactive)
[31]
  GI50: 50.8 µM (inactive)
[32]
  GI50: 19.2 µM (inactive)
[33]
  GI50: > 100 µM (inactive)
[34]
  GI50: > 100 µM (inactive)
[35]
  GI50: > 100 µM (inactive)
[36]
  GI50: 25.3 µM (inactive)
[37]
  GI50: 17.6 µM (inactive)
[38]
  GI50: > 100 µM (inactive)
[39]
  GI50: > 100 µM (inactive)
[40]
  GI50: > 100 µM (inactive)
[41]
  GI50: > 100 µM (inactive)
[42]
  GI50: 85.3 µM (inactive)
[43]
  GI50: 57 µM (inactive)
[44]
  GI50: 71.3 µM (inactive)
[45]
  GI50: > 100 µM (inactive)
[46]
  GI50: > 100 µM (inactive)
[47]
  GI50: > 100 µM (inactive)
[48]
  GI50: > 100 µM (inactive)
[49]
  GI50: > 100 µM (inactive)
[50]
  GI50: > 100 µM (inactive)
[51]
  GI50: > 100 µM (inactive)
[52]
  GI50: > 100 µM (inactive)
[53]
  GI50: > 100 µM (inactive)
[54]
  GI50: > 100 µM
[55]
  GI50: > 100 µM (inactive)

## CC1=CC2C3(C)C(C)(C(C)=CP3(=O)c3c(C(C)C)cc(C(C)C)cc3C(C)C)C1P2(=O)c1c(C(C)C)cc(C(C)C)cc1C(C)C (stereo not drawn)
[1]
  GI50: 2.45 µM (inactive)
[2]
  GI50: 1.09 µM (active)
[3]
  GI50: 1.6 µM (inactive)
[4]
  GI50: 2.23 µM (inactive)
[5]
  GI50: 1.87 µM (inactive)
[6]
  GI50: 1.77 µM (inactive)
[8]
  GI50: 2.4 µM (inactive)
[9]
  GI50: 1.75 µM (inactive)
[10]
  GI50: 3.3 µM (inactive)
[11]
  GI50: 2.7 µM (inactive)
[12]
  GI50: 1.37 µM (inactive)
[13]
  GI50: 2.11 µM (inactive)
[14]
  GI50: 1.92 µM (inactive)
[15]
  GI50: 1.9 µM (inactive)
[16]
  GI50: 2.42 µM (inactive)
[56]
  GI50: 0.916 µM (active)
[17]
  GI50: 2.04 µM (inactive)
[18]
  GI50: 3.2 µM (inactive)
[19]
  GI50: 3.05 µM (inactive)
[20]
  GI50: 2.41 µM (inactive)
[21]
  GI50: 3.01 µM (inactive)
[22]
  GI50: 3.5 µM (inactive)
[23]
  GI50: 3.84 µM (inactive)
[24]
  GI50: 1.85 µM (inactive)
[25]
  GI50: 3.25 µM (inactive)
[57]
  GI50: 2.38 µM (inactive)
[26]
  GI50: 2.58 µM (inactive)
[27]
  GI50: 2.16 µM (inactive)
[28]
  GI50: 1.91 µM (inactive)
[29]
  GI50: 3.08 µM (inactive)
[30]
  GI50: 1.78 µM (inactive)
[31]
  GI50: 2.07 µM (inactive)
[32]
  GI50: 3.37 µM (inactive)
[33]
  GI50: 1.98 µM (inactive)
[34]
  GI50: 2.58 µM (inactive)
[35]
  GI50: 2.68 µM (inactive)
[36]
  GI50: 2.12 µM (inactive)
[37]
  GI50: 2.28 µM (inactive)
[38]
  GI50: 2.21 µM (inactive)
[39]
  GI50: 2.92 µM (inactive)
[40]
  GI50: 1.66 µM (inactive)
[41]
  GI50: 1.33 µM (inactive)
[42]
  GI50: 1.47 µM (inactive)
[43]
  GI50: 1.64 µM (inactive)
[44]
  GI50: 1.77 µM (inactive)
[45]
  GI50: 1.48 µM (inactive)
[46]
  GI50: 1.34 µM (inactive)
[47]
  GI50: 1.72 µM (inactive)
[48]
  GI50: 2.06 µM (inactive)
[49]
  GI50: 2.4 µM (inactive)
[50]
  GI50: 1.58 µM (inactive)
[58]
  GI50: 1.75 µM (inactive)
[51]
  GI50: 1.7 µM (inactive)
[52]
  GI50: 2.55 µM (inactive)
[53]
  GI50: 1.6 µM (inactive)
[54]
  GI50: 1.95 µM
[59]
  GI50: 2.17 µM (inactive)
[55]
  GI50: 2.26 µM (inactive)
